Assays:
[1] = target: T1, complexes formed by Nanchung and Water witch proteins (Wtrw + Nan) (Drosophila melanogaster, UniProt Q9VHY7+Q9VUD5); assay: Calcium mobilization (fluo-4AM, FLIPR-TETRA) in CHO-K1 cells co-expressing Water witch and Nanchung; assay type: cell-based
T1 construct: adenoviral co-expression in CHO-K1 cells, fluo-4 calcium FLIPR
T1 sequence (Q9VUD5 1-833): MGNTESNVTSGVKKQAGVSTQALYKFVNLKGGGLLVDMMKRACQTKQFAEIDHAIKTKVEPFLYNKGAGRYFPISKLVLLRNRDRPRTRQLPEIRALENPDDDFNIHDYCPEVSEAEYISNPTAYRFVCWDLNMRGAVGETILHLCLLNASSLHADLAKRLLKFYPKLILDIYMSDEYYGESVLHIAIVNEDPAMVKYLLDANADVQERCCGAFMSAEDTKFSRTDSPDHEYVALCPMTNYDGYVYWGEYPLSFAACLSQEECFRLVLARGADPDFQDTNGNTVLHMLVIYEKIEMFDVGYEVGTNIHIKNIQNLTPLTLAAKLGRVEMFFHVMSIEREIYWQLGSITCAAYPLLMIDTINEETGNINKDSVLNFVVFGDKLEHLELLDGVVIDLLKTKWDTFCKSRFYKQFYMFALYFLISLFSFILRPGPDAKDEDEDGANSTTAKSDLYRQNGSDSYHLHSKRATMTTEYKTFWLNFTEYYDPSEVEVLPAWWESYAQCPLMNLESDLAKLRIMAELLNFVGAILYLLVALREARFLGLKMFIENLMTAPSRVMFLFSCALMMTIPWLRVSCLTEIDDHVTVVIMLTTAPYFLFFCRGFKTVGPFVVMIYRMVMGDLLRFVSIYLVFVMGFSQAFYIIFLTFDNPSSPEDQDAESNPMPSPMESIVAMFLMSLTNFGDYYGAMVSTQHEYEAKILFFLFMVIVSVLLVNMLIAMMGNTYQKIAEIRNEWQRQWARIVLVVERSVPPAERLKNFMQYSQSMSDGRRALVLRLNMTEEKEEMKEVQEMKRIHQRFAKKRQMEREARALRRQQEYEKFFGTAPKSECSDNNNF
T1 sequence (Q9VHY7 1-986): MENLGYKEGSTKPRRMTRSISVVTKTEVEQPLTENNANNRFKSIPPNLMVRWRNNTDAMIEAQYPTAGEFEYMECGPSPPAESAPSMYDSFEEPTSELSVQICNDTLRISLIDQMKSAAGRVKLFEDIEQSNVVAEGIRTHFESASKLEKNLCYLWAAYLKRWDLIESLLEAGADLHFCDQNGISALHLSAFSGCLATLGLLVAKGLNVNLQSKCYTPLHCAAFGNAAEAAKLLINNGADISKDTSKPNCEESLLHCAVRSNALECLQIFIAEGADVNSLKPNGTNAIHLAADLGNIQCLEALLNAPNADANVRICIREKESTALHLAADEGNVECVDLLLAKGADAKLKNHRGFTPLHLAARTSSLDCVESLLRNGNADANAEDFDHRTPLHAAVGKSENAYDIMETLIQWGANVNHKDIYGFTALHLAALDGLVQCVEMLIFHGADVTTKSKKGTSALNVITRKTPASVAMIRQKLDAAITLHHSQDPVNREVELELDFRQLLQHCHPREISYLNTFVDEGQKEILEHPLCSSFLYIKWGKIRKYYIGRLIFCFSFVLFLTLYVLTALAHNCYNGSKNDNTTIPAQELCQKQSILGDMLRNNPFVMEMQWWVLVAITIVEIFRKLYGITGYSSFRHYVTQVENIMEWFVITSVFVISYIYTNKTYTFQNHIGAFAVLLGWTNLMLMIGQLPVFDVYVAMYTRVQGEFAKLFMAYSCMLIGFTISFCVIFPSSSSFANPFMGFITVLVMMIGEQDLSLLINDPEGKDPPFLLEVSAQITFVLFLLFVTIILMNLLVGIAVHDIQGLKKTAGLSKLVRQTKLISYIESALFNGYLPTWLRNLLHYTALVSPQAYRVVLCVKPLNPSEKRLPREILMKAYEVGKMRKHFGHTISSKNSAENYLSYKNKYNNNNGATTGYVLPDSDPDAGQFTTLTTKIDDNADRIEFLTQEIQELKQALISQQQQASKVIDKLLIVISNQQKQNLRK

[2] = target: T2, complexes formed by Nanchung protein and Inactive protein (Nan + Iav) (Drosophila melanogaster, UniProt Q9VUD5+Q9W3W0); assay: Competition binding with [3H]-afidopyropen to membranes from CHO-K1 cells co-expressing Nanchung and Inactive; conditions: FIG. 6, [3H]-afidopyropen displacement, Nan (SEQ ID NO 7) C-terminal HA/mCherry, Iav (NP_572353) C-terminal FLAG/AcGFP, pH 7.4, 3 h room temperature, Cheng-Prusoff, read-out: Nan + Iav (Nanchung:Inactive complex) Ki
T2 construct: full-length Iav C-terminally fused to FLAG tags and AcGFP; adenoviral co-expression in CHO-K1, membranes; [3H]-afidopyropen tracer
T2 sequence (Q9VUD5 1-833): T1 sequence (Q9VUD5 1-833)
T2 sequence (Q9W3W0 1-1123): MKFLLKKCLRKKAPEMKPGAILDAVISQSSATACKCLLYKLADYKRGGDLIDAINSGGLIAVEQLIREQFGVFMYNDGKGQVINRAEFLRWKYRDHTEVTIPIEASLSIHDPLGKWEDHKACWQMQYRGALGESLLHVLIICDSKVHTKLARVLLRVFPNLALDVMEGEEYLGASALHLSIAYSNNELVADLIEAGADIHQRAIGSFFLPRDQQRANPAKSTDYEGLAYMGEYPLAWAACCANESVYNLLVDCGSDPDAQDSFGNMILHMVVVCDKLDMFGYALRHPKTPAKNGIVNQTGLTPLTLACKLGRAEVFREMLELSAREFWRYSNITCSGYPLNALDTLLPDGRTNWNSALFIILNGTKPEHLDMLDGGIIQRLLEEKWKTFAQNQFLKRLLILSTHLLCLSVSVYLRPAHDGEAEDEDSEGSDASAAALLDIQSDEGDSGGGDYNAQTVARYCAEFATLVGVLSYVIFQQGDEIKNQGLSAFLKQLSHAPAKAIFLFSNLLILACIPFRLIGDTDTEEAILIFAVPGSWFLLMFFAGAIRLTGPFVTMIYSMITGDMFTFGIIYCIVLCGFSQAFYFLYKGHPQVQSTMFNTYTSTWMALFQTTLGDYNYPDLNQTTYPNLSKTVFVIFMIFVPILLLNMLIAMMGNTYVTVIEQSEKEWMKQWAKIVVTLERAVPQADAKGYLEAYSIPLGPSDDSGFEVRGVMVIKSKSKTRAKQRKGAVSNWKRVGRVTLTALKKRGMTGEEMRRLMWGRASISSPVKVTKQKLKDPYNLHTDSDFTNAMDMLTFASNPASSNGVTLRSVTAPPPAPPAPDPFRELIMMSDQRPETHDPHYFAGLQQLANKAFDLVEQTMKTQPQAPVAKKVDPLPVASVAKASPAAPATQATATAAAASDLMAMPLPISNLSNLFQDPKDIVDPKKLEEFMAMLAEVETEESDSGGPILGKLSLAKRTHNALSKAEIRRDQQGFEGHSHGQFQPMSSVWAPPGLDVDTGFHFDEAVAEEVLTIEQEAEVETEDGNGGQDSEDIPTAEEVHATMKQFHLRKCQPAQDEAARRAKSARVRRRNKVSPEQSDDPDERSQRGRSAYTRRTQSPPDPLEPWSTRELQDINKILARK

[3] = target: T3, complexes formed by Nanchung protein and Water witch protein (Nan + Wtrw) (Drosophila melanogaster, UniProt Q9VHY7+Q9VUD5); assay: Competition binding with [3H]-afidopyropen to membranes from CHO-K1 cells co-expressing Nanchung and Water witch; conditions: FIG. 6, [3H]-afidopyropen displacement, Nan (SEQ ID NO 7) C-terminal HA/mCherry, Wtrw (SEQ ID NO 63) C-terminal FLAG/AcGFP, pH 7.4, 3 h room temperature, Cheng-Prusoff, read-out: Nan + Wtrw (Nanchung:Water witch complex) Ki
T3 construct: adenoviral co-expression in CHO-K1, membranes; [3H]-afidopyropen tracer
T3 sequence (Q9VUD5 1-833): T1 sequence (Q9VUD5 1-833)
T3 sequence (Q9VHY7 1-986): T1 sequence (Q9VHY7 1-986)

CC1=NNC(=O)N(/N=C/c2cccnc2)C1 [Pymetrozine, pymetrozine]
EC50 [1]: 96 nM
Ki [2]: 43 nM
Ki [3]: 102 nM

From patent publication US20230176038A1, “Methods for Identifying Modulators of Insect Transient Receptor Potential Channels” (BASF Corporation, priority 2019, published 2023)
